SMILES strings stand for the structures.

The record followed here is patent publication US11590116B2 (THERAVANCE BIOPHARMA R&D IP, LLC, priority 2019, dated 2023).

Test [1] relates to TGF-β-stimulated SMAD3 phosphorylation in BEAS-2B cells. In words: Cellular ALK5 potency assay, inhibition of TGF-β stimulated pSMAD3 formation in BEAS-2B cells. Particulars: Homo sapiens; inhibition of TGF-β stimulated pSMAD3 formation, BEAS-2B cells; read-out: BEAS2B pIC50 (converted). The format is cell-based. The gist of the method:
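Cells seeded overnight; rinse with supplemented HBSS; compound 1 h at 37 °C; TGF-β 10 ng/mL final, 30 min; lyse; AlphaLISA acceptor and detector beads 2 h apart, read next day. Potency expressed as pIC50.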

Test [2] addresses T1, recombinant human ALK5 (TGF-βR1) protein (Homo sapiens, UniProt P36897).
T1 construct: purchased Life Technologies PR9075A
T1 sequence (P36897 34-503): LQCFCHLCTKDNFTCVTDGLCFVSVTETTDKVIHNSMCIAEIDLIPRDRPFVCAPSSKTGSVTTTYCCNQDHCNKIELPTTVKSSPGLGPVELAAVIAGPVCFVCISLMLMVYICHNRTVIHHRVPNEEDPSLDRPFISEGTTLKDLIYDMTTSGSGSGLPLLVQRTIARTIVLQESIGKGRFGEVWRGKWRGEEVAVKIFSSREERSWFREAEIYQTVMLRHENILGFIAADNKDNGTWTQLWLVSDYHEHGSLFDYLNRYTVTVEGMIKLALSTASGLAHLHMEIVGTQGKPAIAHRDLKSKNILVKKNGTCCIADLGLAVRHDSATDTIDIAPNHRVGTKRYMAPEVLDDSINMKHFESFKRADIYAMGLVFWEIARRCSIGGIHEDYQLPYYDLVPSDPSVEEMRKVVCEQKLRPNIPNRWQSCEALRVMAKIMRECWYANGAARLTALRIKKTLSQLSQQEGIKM
In words: Biochemical ALK5 (TGF-βR1) assay to measure pKi (LANCE Ultra ULight kinase assay). As to conditions: apparent pKi from pIC50 by Cheng-Prusoff, read-out: ALK5 pKi (converted). In a few lines:
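After a 60 min room-temperature preincubation of ALK5 with compound, phosphorylation proceeds 60 min at 37 °C on ATP addition (125 μM as 5× stock). Detection: Eu-labelled phospho-Thr1342 Topo IIα antibody in EDTA buffer, pH 7.0; emission 665 nm.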

For `Cc1nc(-c2[nH]cnc2-c2ccc3ncc(-c4cn[nH]c4)cc3c2)ccc1F` [Compound 423, 6-[5-(5-fluoro-6-methyl-2-pyridyl)-1H-imidazol-4-yl]-3-(1H-pyrazol-4-yl)quinoline], the IC50 in test [1] was less than 20 nM. Also, the Ki in test [2] is less than 0.0316 nM.
Turning to `Cc1cccc(-c2n[nH]cc2-c2ccc3ncc(NCC4CCCCN4)cc3n2)n1` (stereo not drawn) [Compound 375, 6-[3-(6-methyl-2-pyridyl)-1H-pyrazol-4-yl]-N-(2-piperidylmethyl)-1,5-naphthyridin-3-amine], in test [1], the IC50 is 25.1 to 158 nM. In addition, the Ki in test [2] was 0.0398 to 0.316 nM.
In the case of `Cc1cccc(-c2[nH]ncc2-c2ccc3ncc(C(=O)NC4CCNCC4)cc3n2)n1` [Compound 337, 6-[5-(6-methyl-2-pyridyl)-1H-pyrazol-4-yl]-N-(4-piperidyl)-1,5-naphthyridine-3-carboxamide], the IC50 in test [1] is 200 to 1260 nM. In test [2], the Ki was 0.0398 to 0.316 nM.
In the same order, the values of `Cc1cccc(-c2[nH]cnc2-c2ccc3ncc(-c4nc(C(=O)OCCN5CC[C@@H](N)C5)cs4)cc3c2)n1` [Compound 1246, 2-[(3R)-3-aminopyrrolidin-1-yl]ethyl 2-[6-[5-(6-methyl-2-pyridyl)-1H-imidazol-4-yl]-3-quinolyl]thiazole-4-carboxylate] are 200 to 1260 nM and 0.0398 to 0.316 nM.
In the same order, the values of `Cc1cccc(-c2nc3ccccn3c2-c2ccc3ncc(-c4cc5n(n4)CCNC5)cc3n2)n1` [Compound 693, 2-[2-(6-methyl-2-pyridyl)imidazo[1,2-a]pyridin-3-yl]-7-(4,5,6,7-tetrahydropyrazolo[1,5-a]pyrazin-2-yl)-1,5-naphthyridine] are less than 20 nM and less than 0.0316 nM.
Taken in the same sequence, the figures for `Cc1cccc(-c2[nH]cnc2-c2ccc3ncc(C(=O)OCCCCN4CCCC4)cc3c2)n1` [Compound 714, 4-pyrrolidin-1-ylbutyl 6-[5-(6-methyl-2-pyridyl)-1H-imidazol-4-yl]quinoline-3-carboxylate] were 25.1 to 158 nM and 0.0398 to 0.316 nM.
Consider `Cc1cccc(-c2[nH]cnc2-c2ccc3ncc(C4=CCN(C(C)C)C4)cc3c2)n1` [Compound 319, 3-(1-isopropyl-2,5-dihydropyrrol-3-yl)-6-[5-(6-methyl-2-pyridyl)-1H-imidazol-4-yl]quinoline], for which, in test [1], the IC50 was 25.1 to 158 nM. For the same molecule, the Ki in test [2] was less than 0.0316 nM.
Take `Cc1cccc(-c2n[nH]cc2-c2ccc3ncc(-c4nc5c([nH]4)CCNCC5)cc3n2)n1` [Compound 642, 2-[6-[3-(6-methyl-2-pyridyl)-1H-pyrazol-4-yl]-1,5-naphthyridin-3-yl]-1,4,5,6,7,8-hexahydroimidazo[4,5-d]azepine]: in test [1], the IC50 is 200 to 1260 nM. Also, the Ki in test [2] was 0.0398 to 0.316 nM.
`Cc1cccc(-c2n[nH]cc2-c2ccc3ncc(N4C[C@@H]5CCN[C@@H]5C4)cc3n2)n1` (racemic) [Compound 598, 2-[3-(6-methyl-2-pyridyl)-1H-pyrazol-4-yl]-7-[rac-(3aS,6aS)-2,3,3a,4,6,6a-hexahydro-1H-pyrrolo[2,3-c]pyrrol-5-yl]-1,5-naphthyridine]: the IC50 in test [1] was 25.1 to 158 nM. Besides, the Ki in test [2] was less than 0.0316 nM.
Take `Cc1cccc(-c2[nH]cnc2-c2ccc3ncc(-c4csc(C(=O)O[C@H]5CCNC5)c4)cc3c2)n1` [Compound 754, [(3S)-pyrrolidin-3-yl] 4-[6-[5-(6-methyl-2-pyridyl)-1H-imidazol-4-yl]-3-quinolyl]thiophene-2-carboxylate]: the IC50 in test [1] is 25.1 to 158 nM. In test [2], the Ki is 0.0398 to 0.316 nM.
Taken in the same sequence, the figures for `Cc1cccc(-c2[nH]cnc2-c2ccc3ncc(N4CC5(CC(N)C5)C4)cc3c2)n1` [Compound 624, 2-[6-[5-(6-methyl-2-pyridyl)-1H-imidazol-4-yl]-3-quinolyl]-2-azaspiro[3.3]heptan-6-amine] were 25.1 to 158 nM and 0.0398 to 0.316 nM.
On to `CNCCn1cc(-c2ccnc3ccc(-c4c[nH]nc4-c4cccc(C)n4)cc23)cn1` [Compound 865, N-methyl-2-[4-[6-[3-(6-methyl-2-pyridyl)-1H-pyrazol-4-yl]-4-quinolyl]pyrazol-1-yl]ethanamine], for which, in test [1], the IC50 is 25.1 to 158 nM. The Ki in test [2] was 0.0398 to 0.316 nM.
In the case of `Cc1cccc(-c2[nH]cnc2-c2ccc3ncc(NC(=O)C4CC(N)C4)cc3c2)n1` (stereo not drawn) [Compound 3, 3-amino-N-[6-[5-(6-methyl-2-pyridyl)-1H-imidazol-4-yl]-3-quinolyl]cyclobutanecarboxamide], the IC50 in test [1] is 200 to 1260 nM. For the same molecule, the Ki in test [2] is 0.0398 to 0.316 nM.
In the case of `Cc1cccc(-c2n[nH]cc2-c2ccc3nccc(C(=O)NCCCC[C@H](NC(=O)[C@@H](C)N)C(=O)O)c3n2)n1` (racemic) [Compound 804, rac-(2S)-6-[[6-[3-(6-methyl-2-pyridyl)-1H-pyrazol-4-yl]-1,5-naphthyridine-4-carbonyl]amino]-2-[[rac-(2R)-2-aminopropanoyl]amino]hexanoic acid], in test [1], the IC50 is 1580 to 10000 nM. Further, the Ki in test [2] is 0.398 to 3.16 nM.
In the same order, the values of `Cc1cccc(-c2[nH]cnc2-c2ccc3ncc(-c4cccc(NC5CNC5)n4)cc3c2)n1` [Compound 180, N-(azetidin-3-yl)-6-[6-[5-(6-methyl-2-pyridyl)-1H-imidazol-4-yl]-3-quinolyl]pyridin-2-amine] are 1580 to 10000 nM and 0.0398 to 0.316 nM.
Taken in the same sequence, the figures for `Cc1cccc(-c2[nH]cnc2-c2ccc3ncc(-c4ccc(C(=O)O)cn4)cc3c2)n1` [Compound 1091, 6-[6-[5-(6-methyl-2-pyridyl)-1H-imidazol-4-yl]-3-quinolyl]pyridine-3-carboxylic acid] were 1580 to 10000 nM and less than 0.0316 nM.
In the same order, the values of `Cc1cccc(-c2[nH]cnc2-c2ccc3ncc(C4=CCNC4)cc3c2)n1` [Compound 429, 3-(2,5-dihydro-1H-pyrrol-3-yl)-6-[5-(6-methyl-2-pyridyl)-1H-imidazol-4-yl]quinoline] are less than 20 nM and 0.0398 to 0.316 nM.
On to `Cc1cccc(-c2[nH]cnc2-c2ccc3ncc(C(=O)OCCCC4CNC4)cc3c2)n1` [Compound 1090, 3-(azetidin-3-yl)propyl 6-[5-(6-methyl-2-pyridyl)-1H-imidazol-4-yl]quinoline-3-carboxylate], for which, in test [1], the IC50 was 200 to 1260 nM. Further, in test [2], the Ki is 0.0398 to 0.316 nM.
Taken in the same sequence, the figures for `Cc1cccc(-c2[nH]nnc2-c2ccc3ncc(N4CCC(N(C)C)C4)cc3c2)n1` (racemic) [Compound 561, rac-(3S)-N,N-dimethyl-1-[6-[5-(6-methyl-2-pyridyl)-1H-triazol-4-yl]-3-quinolyl]pyrrolidin-3-amine] were 25.1 to 158 nM and less than 0.0316 nM.
Taken in the same sequence, the figures for `Cc1cccc(-c2n[nH]cc2-c2ccc3nccc(C(=O)OCCCN4CCOCC4)c3n2)n1` [Compound 826, 3-morpholinopropyl 6-[3-(6-methyl-2-pyridyl)-1H-pyrazol-4-yl]-1,5-naphthyridine-4-carboxylate] were 25.1 to 158 nM and 0.398 to 3.16 nM.
As for `Cc1cccc(-c2[nH]cnc2-c2ccc3ncc(NCCNC4CCCNC4)cc3c2)n1` (racemic) [Compound 217, N-[6-[5-(6-methyl-2-pyridyl)-1H-imidazol-4-yl]-3-quinolyl]-N′-[rac-(3R)-3-piperidyl]ethane-1,2-diamine], the IC50 in test [1] was 200 to 1260 nM. In addition, in test [2], the Ki is 0.0398 to 0.316 nM.
